In ChEMBL document CHEMBL6127065, “Design and Synthesis of c-Met and HDAC Dual Inhibitors for the Treatment of Breast Cancer” (ACS Med Chem Lett, 2024):
Activity calls are given as the source filed them. No cut-off for these calls is given here.

Columns and labels:
[1] = system: MDA-MB-468; experiment: Antiproliferative activity against human MDA-MB-468 cells assessed as reduction in cell growth incubated for 72 hrs by MTT assay; conditions: MDA-MB-468, 72 h
[2] = Cytotoxicity against human MCF-10A cells assessed as reduction in cell viability incubated for 72 hrs by MTT assay; format: toxicity, cell-based
[3] = system: MDA-MB-231; experiment: Anti-migration activity in human MDA-MB-231 cells assessed as inhibition of cell invasion incubated for 72 hrs by Transwell assay; format: functional, cell-based; conditions: dose 1-25 µM
[4] = system: MDA-MB-231; experiment: Induction of apoptosis in human MDA-MB-231 cells assessed as upregulation of cleaved caspase 8 level at 1 to 25 uM incubated for 48 hrs by western blot analysis; format: functional, cell-based; conditions: dose 1-25 µM
[5] = system: MDA-MB-231; experiment: Induction of cell cycle arrest in human MDA-MB-231 cells assessed as accumulation of cells at S phase at 10 uM incubated for 48 hrs by PI staining based flow cytometry (reference value: 12.56 to 14.76%); format: functional
[6] = system: MDA-MB-231; experiment: Induction of apoptosis in human MDA-MB-231 cells assessed as viable cells at 25 uM incubated for 48 hrs by AnnexinV-FITC/PI staining based flow cytometry (reference value: 91.22 to 92.84%); format: functional; conditions: read-out: Activity
[7] = system: MDA-MB-231; experiment: Induction of apoptosis in human MDA-MB-231 cells assessed as viable cells at 10 uM incubated for 48 hrs by AnnexinV-FITC/PI staining based flow cytometry (reference value: 91.22 to 92.84%); format: functional; conditions: read-out: Activity
[8] = system: MDA-MB-231; experiment: Induction of apoptosis in human MDA-MB-231 cells assessed as viable cells at 2.5 uM incubated for 48 hrs by AnnexinV-FITC/PI staining based flow cytometry (reference value: 91.22 to 92.84%); format: functional; conditions: read-out: Activity
[9] = molecular target: Hepatocyte growth factor receptor (Homo sapiens, UniProt P08581); experiment: Inhibition of c-Met in human MDA-MB-231 cells assessed as inhibition of Akt phosphorylation at […] residue incubated for 48 hrs by western blot analysis; format: cell-based; conditions: dose 1-25 µM
Sequence of Hepatocyte growth factor receptor (P08581 whole entry): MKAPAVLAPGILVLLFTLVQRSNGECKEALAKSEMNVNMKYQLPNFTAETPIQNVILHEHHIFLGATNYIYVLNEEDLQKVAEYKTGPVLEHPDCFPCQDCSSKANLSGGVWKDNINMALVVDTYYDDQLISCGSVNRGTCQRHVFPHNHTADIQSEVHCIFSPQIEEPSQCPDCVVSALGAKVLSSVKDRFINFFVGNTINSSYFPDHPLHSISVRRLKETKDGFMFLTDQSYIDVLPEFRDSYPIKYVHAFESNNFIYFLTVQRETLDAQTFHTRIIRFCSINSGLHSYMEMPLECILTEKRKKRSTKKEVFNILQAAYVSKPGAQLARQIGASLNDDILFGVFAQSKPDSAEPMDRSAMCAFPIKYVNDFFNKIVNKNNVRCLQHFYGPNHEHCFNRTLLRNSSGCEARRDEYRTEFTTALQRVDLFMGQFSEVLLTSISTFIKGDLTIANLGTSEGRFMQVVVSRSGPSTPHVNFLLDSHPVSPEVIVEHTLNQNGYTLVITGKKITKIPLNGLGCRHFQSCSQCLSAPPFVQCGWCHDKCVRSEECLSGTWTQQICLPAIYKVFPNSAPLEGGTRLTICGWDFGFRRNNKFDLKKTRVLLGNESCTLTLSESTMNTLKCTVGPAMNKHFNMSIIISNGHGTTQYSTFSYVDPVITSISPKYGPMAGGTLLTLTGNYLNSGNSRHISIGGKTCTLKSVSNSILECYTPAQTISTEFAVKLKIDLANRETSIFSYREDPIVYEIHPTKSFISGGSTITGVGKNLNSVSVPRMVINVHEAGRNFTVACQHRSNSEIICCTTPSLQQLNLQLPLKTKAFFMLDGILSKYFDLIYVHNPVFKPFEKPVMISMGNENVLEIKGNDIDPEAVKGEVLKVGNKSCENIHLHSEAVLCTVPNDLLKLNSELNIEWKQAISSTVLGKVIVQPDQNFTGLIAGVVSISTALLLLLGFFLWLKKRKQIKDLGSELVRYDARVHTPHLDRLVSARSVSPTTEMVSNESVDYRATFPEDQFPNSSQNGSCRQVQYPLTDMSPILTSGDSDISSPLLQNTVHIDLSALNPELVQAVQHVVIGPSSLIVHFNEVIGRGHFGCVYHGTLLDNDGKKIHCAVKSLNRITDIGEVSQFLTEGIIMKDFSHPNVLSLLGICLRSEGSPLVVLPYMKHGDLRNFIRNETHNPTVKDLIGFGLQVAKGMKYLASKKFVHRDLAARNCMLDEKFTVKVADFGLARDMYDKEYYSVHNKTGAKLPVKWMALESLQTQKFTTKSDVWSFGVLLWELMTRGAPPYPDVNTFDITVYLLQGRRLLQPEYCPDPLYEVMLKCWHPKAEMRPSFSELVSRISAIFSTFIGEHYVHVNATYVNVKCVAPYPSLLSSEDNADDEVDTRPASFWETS

[10] = system: MDA-MB-231; experiment: Induction of apoptosis in human MDA-MB-231 cells assessed as early apoptotic cells at 2.5 uM incubated for 48 hrs by AnnexinV-FITC/PI staining based flow cytometry (reference value: 1.6 to 2.41%); format: functional
[11] = system: MDA-MB-231; experiment: Induction of apoptosis in human MDA-MB-231 cells assessed as necrotic cells at 2.5 uM incubated for 48 hrs by AnnexinV-FITC/PI staining based flow cytometry (reference value: 1.79 to 2.53%); format: functional
[12] = system: MDA-MB-231; experiment: Inhibition of colony formation in human MDA-MB-231 cells at 1 to 25 uM incubated for 7 days by crystal violet staining based analysis; format: functional, cell-based; conditions: dose 1-25 µM, time 7.0 day

## CC(c1ccc2ncccc2c1)n1nnc2ncc(N3CCN(Cc4ccc(/C=C/C(=O)Nc5ccccc5N)cc4)CC3)nc21 (configuration not stated)
[1]
  IC50: 1.25 µM
[2]
  IC50 at 72 h: > 25 µM
[3]
  Activity: Dose-Dependent Effect
[4]
  Activity: Active
[5]
  Activity: 8.21%
[6]
  viability at 25 µM: 82.8%
[7]
  viability at 10 µM: 83.1%
[8]
  viability at 2.5 µM: 84.3%
[9]
  inhibition: Dose-Dependent Effect
[10]
  Activity: 4.92%
[11]
  Activity: 3.83%
[12]
  inhibition: Dose-Dependent Effect
